Reference: US5753648A, “Tricyclic benzazepine vasopressin antagonists” (American Cyanamid Company, priority 1996, dated 1998)
pIC50: −log10 of the molar value. Structures can show the parent of a compound that is named as a salt.

Key:
oxytocin receptors = target: T1, oxytocin receptors (Rattus norvegicus, UniProt P70536); assay: Oxytocin Receptor Binding; conditions: for pIC50: rat uterine membranes, [3H]oxytocin
T1 sequence (P70536 1-388): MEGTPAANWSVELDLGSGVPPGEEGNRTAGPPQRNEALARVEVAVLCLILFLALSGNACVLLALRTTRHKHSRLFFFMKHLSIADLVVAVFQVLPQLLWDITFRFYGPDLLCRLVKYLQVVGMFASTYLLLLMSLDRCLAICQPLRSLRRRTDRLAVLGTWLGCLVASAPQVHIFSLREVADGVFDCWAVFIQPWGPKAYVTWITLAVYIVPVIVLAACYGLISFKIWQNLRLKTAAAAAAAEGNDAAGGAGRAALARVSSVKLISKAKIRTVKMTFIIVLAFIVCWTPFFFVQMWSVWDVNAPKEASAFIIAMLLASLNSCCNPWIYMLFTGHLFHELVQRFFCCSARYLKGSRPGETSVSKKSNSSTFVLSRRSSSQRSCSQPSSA

[1] = target: T2, Rat Kidney Medullary V2 Receptors (Rattus norvegicus, UniProt Q00788); assay: biochemical; assay type: binding
T2 construct: Medullary tissues from rat kidneys are dissected out; from tissue; host or cells: rat kidney medulla membranes
Protocol: Binding Assay to Rat Kidney Medullary V2 Receptors
Medullary tissues from rat kidneys are dissected out, cut into small pieces and soaked in a […] sodium chloride solution containing 1.0 mM EDTA with many changes of the liquid phase, until the solution is clear of blood. The tissue is homogenized in a 0.25M sucrose solution containing 1.0 mM EDTA and 0.1 mM PMSF using a Potter-Elvehjem homogenizer with a teflon pestle. The homogenate is filtered through several layers (4 layers) of cheese cloth. The filtrate is rehomogenized using a dounce homogenizer, with a tight fitting pestle. The final homogenate is centrifuged at 1500×g for 15 min. The nuclear pellet is discarded and the supernatant fluid recentrifuged at 40,000×g for 30 min. The resulting pellet formed contains a dark inner part with the exterior, slightly pink. The pink outer part is suspended in a small amount of 50.0 mM Tris.HCl buffer, pH 7.4. The protein content is determined by the Lowry's method (Lowry et al, J. Biol. Chem., 1953). The membrane suspension is stored at -70° C., in 50.0 mM Tris.HCl, containing 0.2% inactivated BSA and 0.1 mM PMSF in aliquots of 1.0 ml containing 10.0 mg protein per ml of suspension until use in subsequent binding experiments.
For binding experiments, the following is added in μl volume to wells of a 96 well format of a microtiter plate: 100.0 μl of 100.0 mM Tris.HCl buffer containing 0.2% heat inactivated BSA, 10.0 mM MgCl2 and a mixture of protease inhibitors: leupeptin, 1.0 mg %; aprotinin, 1.0 mg %; 1,10-phenanthroline, 2.0 mg %; trypsin inhibitor, 10.0 mg % and 0.1 mM PMSF, 20.0 μl of [^3 H] Arginine^8, vasopressin (S.A. 75.0 Ci/mmole) at 0.8 nM and the reaction initiated by the addition of 80.0 μl of tissue membranes (200.0 μg tissue protein). The plates are left undisturbed on the bench top for 120 min. to reach equilibrium. Non-specific binding is assessed in the presence of 1.0 μM of unlabeled ligand, added in 20 μl volume. For test compounds, these are solubilized in 50% dimethylsulfoxide (DMSO) and added in 20.0 μl volume to a final incubation volume of 200 μl. Upon completion of binding, the content of each well is filtered off, using a Brandel® cell Harvester (Gaithersburg, Md.). The radioactivity trapped on the filter disk by the ligand-receptor complex is assessed by liquid scintillation counting in a Packard LS Counter, with an efficiency of 65% for tritium. The data are analyzed for IC50 values by the LUNDON-2 program for competition (LUNDON SOFTWARE, Ohio).

T2 sequence (Q00788 whole entry): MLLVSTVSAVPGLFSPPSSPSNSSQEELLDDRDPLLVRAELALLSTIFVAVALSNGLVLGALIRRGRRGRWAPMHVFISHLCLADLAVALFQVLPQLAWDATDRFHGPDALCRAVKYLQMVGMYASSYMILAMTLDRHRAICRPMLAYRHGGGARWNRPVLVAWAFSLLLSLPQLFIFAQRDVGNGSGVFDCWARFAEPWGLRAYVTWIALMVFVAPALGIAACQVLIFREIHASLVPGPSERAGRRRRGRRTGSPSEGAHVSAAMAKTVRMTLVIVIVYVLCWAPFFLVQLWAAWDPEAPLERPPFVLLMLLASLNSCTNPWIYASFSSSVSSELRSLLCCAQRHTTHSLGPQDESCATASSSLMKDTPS

Row | inhibition at 10 µM (oxytocin receptors; dose 10 μM) | inhibition at 10 µM [1] | inhibition at 1 µM [1] | pIC50 (oxytocin receptors) | SMILES | further results
1 | 66% | 58% | – | – | O=C(Nc1ccc(C(=O)N2Cc3cccn3Cc3ccccc32)cn1)c1ccc(F)cc1F [Example 7] | –
2 | – | – | 95% | – | O=C(Nc1ccc(C(=O)N2Cc3cccn3Cc3ccccc32)cn1)c1ccccc1-c1ccccc1 [Example 10] | –
3 | – | – | 93% | – | O=C(Nc1ccc(C(=O)N2Cc3cccn3Cc3ccccc32)cn1)c1cc(Br)ccc1Cl [Example 11] | –
4 | 96% | – | 99% | 6.24 | O=C(Nc1ccc(C(=O)N2Cc3cccn3Cc3ccccc32)cn1)c1cc(Cl)ccc1Cl [Example 14] | –
5 | – | – | 94% | 6.51 | O=C(Nc1ccc(C(=O)N2Cc3cccn3Cc3ccccc32)cn1)c1c(F)cccc1Cl [Example 18] | inhibition at 5 µM (oxytocin receptors; dose 5 μM): 97%
6 | 99% | – | – | 6.04 | O=C(Nc1ccc(C(=O)N2Cc3cccn3Cc3ccccc32)cn1)c1ccccc1[N+](=O)[O-] [Example 43] | –
7 | – | – | – | – | Cc1ccc(F)cc1C(=O)Nc1ccc(C(=O)N2Cc3ccc(CN(C)C)n3Cc3ccccc32)cn1 [Example 120, N-[5-[[3-[(Dimethylamino)methyl]-[5H-pyrrolo[2,1-c][1,4]benzodiazepin-10(11H)]-yl]carbonyl]-2-pyridinyl]-5-fluoro-2-methylbenzamide] | inhibition at 1 µM (oxytocin receptors; dose 1 μM): 8%
8 | 57% | 92% | – | – | Cc1ccc(F)cc1C(=O)N(CCN(C)C)c1ccc(C(=O)N2Cc3cccn3Cc3ccccc32)cn1 [Example 130, N-[2-(Dimethylamino)ethyl]-N-[5-(5H-pyrrolo[2,1-c][1,4]benzodiazepin-10(11H)-ylcarbonyl)-2-pyridinyl]-5-fluoro-2-methylbenzamide] | –
9 | 60% | – | 82% | – | Cc1ccc(F)cc1C(=O)N(CCCN(C)C)c1ccc(C(=O)N2Cc3cccn3Cc3ccccc32)cn1 [Example 131, N-[3-(Dimethylamino)propyl]-N-[5-(5H-pyrrolo[2,1-c][1,4]benzodiazepin-10(11H)-ylcarbonyl)-2-pyridinyl]-5-fluoro-2-methylbenzamide] | –
10 | – | 94% | – | – | Cc1ccc(F)cc1C(=O)Nc1ccc(C(=O)N2Cc3cccn3-c3ncccc32)cn1 [Example 134, N-[5-(Pyrido[3,2-e]pyrrolo[1,2-a]pyrazin-5(6H)-ylcarbonyl)-2-pyridinyl]-5-fluoro-2-methylbenzamide] | inhibition at 1 µM (oxytocin receptors; dose 1 μM): 63%
11 | 73% | – | – | 5.96 | Cc1ccc(F)cc1C(=O)Nc1ccc(C(=O)N2Cc3cccn3-c3ccccc32)cn1 [Example 171, N-[5-(Pyrrolo[1,2-a]quinoxalin-5(4H)-ylcarbonyl)-2-pyridinyl]-5-fluoro-2-methylbenzamide] | –
12 | – | 55% | 32% | 6.82 | CC(C)CNc1ccc(C(=O)N2Cc3cccn3Cc3ccccc32)cn1 [Example 261, 10-[[6-[(2-Methylpropyl)amino]-3-pyridinyl]carbonyl]-10,11-dihydro-5H-pyrrolo[2,1-c][1,4]benzodiazepine] | –
13 | 76% | – | 50% | 5.80 | CC(C)(C)CCNc1ccc(C(=O)N2Cc3cccn3Cc3ccccc32)cn1 [Example 262] | –
14 | – | 97% | – | – | Cc1ccccc1CNc1ccc(C(=O)N2Cc3cccn3Cc3ccccc32)cn1 [Example 274] | –
15 | 94% | 54% | – | 5.87 | O=C(c1ccc(SC2CCCCC2)nc1)N1Cc2cccn2Cc2ccccc21 [Example 288, 10,11-Dihydro-10-[[6-(cyclohexylthio)-3-pyridinyl]carbonyl]-5H-pyrrolo-[2,1-c][1,4]benzodiazepine] | –
16 | 89% | 91% | – | 6.07 | Cc1ccccc1Nc1ccc(C(=O)N2Cc3cccn3Cc3ccccc32)cn1 [Example 301, 10,11-Dihydro-10-[[6-[(2-methylphenyl)amino]-3-pyridinyl]carbonyl]-5H-Pyrrolo[2,1-c][1,4]benzodiazepine] | –
17 | – | 91% | – | – | O=C(Nc1ccc(C(=O)N2Cc3cccn3Cc3ccccc32)c(Cl)c1)c1ccccc1-c1ccc(C(F)(F)F)cc1 [Example 326] | inhibition at 1 µM (oxytocin receptors; dose 1 μM): 0%
18 | – | – | 79% | – | Cc1ncccc1C(=O)Nc1ccc(C(=O)N2Cc3cccn3Cc3ccccc32)cn1 [Example 330, N-[5-(5H-Pyrrolo[2,1-c][1,4]benzodiazepin-10(11H)-ylcarbonyl]-2-pyridinyl]-2-methylpyridine-3-carboxamide Hydrochloride] | Oxytocin Binding Assay % Inhibition (oxytocin receptors; dose 10 μM, Hydrochloride): 93%; pIC50 (oxytocin receptors; Hydrochloride): 6.00
19 | – | – | 43% | – | CN1CCN(c2ncccc2C(=O)Nc2ccc(C(=O)N3Cc4cccn4Cc4ccccc43)cc2)CC1 [Example 331, N-[4-(5H-Pyrrolo[2,1-c][1,4]benzodiazepin-10(11H)-ylcarbonyl)phenyl]-2-[N-methylpiperazinyl]-pyridine-3-carboxamide Hydrochloride] | Oxytocin Binding Assay % Inhibition (oxytocin receptors; dose 1 μM, Hydrochloride): 13%
20 | – | – | 79% | – | CNc1ncccc1C(=O)Nc1ccc(C(=O)N2Cc3cccn3Cc3ccccc32)cc1 [Example 334, N-[4-(5H-Pyrrolo[2,1-c][1,4]benzodiazepin-10(11H)-ylcarbonyl)phenyl]-2-(methylamino)pyridine-3-carboxamide] | inhibition at 1 µM (oxytocin receptors; dose 1 μM): 5%
21 | 94% | – | 69% | 5.79 | O=C(Nc1ccc(C(=O)N2Cc3cccn3Cc3ccccc32)cc1)c1cccnc1N1CCCCC1 [Example 336, N-[4-(5H-Pyrrolo[2,1-c][1,4]benzodiazepin-10(11H)-ylcarbonyl)phenyl]-2-(1-piperidinyl)-pyridine-3-carboxamide] | –
22 | 48% | – | 55% | 5.07 | O=C(Nc1ccc(C(=O)N2Cc3cccn3Cc3ccccc32)cc1)c1cccnc1N1CCOCC1 [Example 339, N-[4-(5H-Pyrrolo[2,1-c][1,4]benzodiazepin-10(11H)-ylcarbonyl)phenyl]-2-(morpholino)-pyridine-3-carboxamide] | –
23 | – | – | – | 5.42 | CCCCOc1ccc(C(=O)N2Cc3cc(CO)nn3Cc3ccccc32)cc1 [Example 344, 5,10-Dihydro-2-hydroxymethyl-5-(4-(4-butyloxy)benzoyl)-4H-pyrazolo[5,1-c][1,4]benzodiazepine] | inhibition at 1 µM (oxytocin receptors; dose 1 μM): 58%
24 | – | 76% | – | – | O=C(Nc1ccc(C(=O)N2Cc3cccn3Cc3ccccc32)cc1)c1cccnc1Oc1ccc(Cl)cc1 [Example 346, N-[4-(5H-Pyrrolo[2,1-c][1,4]benzodiazepin-10(11H)-ylcarbonyl)phenyl]-2-(4-chlorophenyloxy)pyridine-3-carboxamide] | inhibition at 1 µM (oxytocin receptors; dose 1 μM): 0%
25 | – | – | 56% | – | COc1ccc(CNc2ccc(C(=O)N3Cc4cccn4Cc4ccccc43)cn2)c(OC)c1 [Example 351] | inhibition at 1 µM (oxytocin receptors; dose 1 μM): 0%
26 | 83% | – | 86% | 5.69 | Cc1occc1C(=O)Nc1ccc(C(=O)N2Cc3cccn3Cc3ccccc32)cn1 [Example 353, N-[5-(5H-Pyrrolo[2,1-c][1,4]benzodiazepine-10(11H)-ylcarbonyl)-2-pyridinyl]-2-methylfurane-3-carboxamide] | –
27 | – | – | 86% | – | Nc1ccccc1C(=O)Nc1ccc(C(=O)N2Cc3cccn3Cc3ccccc32)cn1 [Example 354, N-[5-(5H-Pyrrolo[2,1-c][1,4]benzodiazepin-10(11H)-ylcarbonyl)-2-pyridinyl]-2-aminobenzamide] | inhibition at 1 µM (oxytocin receptors; dose 1 μM): 7%
